In ChEMBL document CHEMBL4665836, “Overcoming β-Lactam resistance in Pseudomonas aeruginosa using non-canonical tobramycin-based antibiotic adjuvants” (2020):

Key:
Format in all cases: functional
Pseudomonas aeruginosa [1] = experiment: Potentiation of ceftazidime-induced antibacterial activity against carbapenem-resistant Pseudomonas aeruginosa 100036 clinical isolate assessed as ceftazidime MIC at 8 uM by checkerboard assay (reference value: 8 ug/ml)
Pseudomonas aeruginosa [2] = experiment: Potentiation of imipenem-induced antibacterial activity against carbapenem-resistant Pseudomonas aeruginosa 100036 clinical isolate assessed as imipenem MIC at 8 uM by checkerboard assay (reference value: 8 ug/ml)
Pseudomonas aeruginosa [3] = experiment: Potentiation of imipenem-induced antibacterial activity against carbapenem-resistant Pseudomonas aeruginosa PAO200 harboring mexAB-oprM efflux deficient mutant assessed as imipenem MIC at 8 uM by checkerboard assay (reference value: 4 ug/ml)
Pseudomonas aeruginosa [4] = experiment: Potentiation of aztreonam-induced antibacterial activity against wild type Pseudomonas aeruginosa PAO1 assessed as aztreonam MIC at 8 uM by checkerboard assay (reference value: 4 ug/ml)
Pseudomonas aeruginosa [5] = experiment: Potentiation of imipenem-induced antibacterial activity against carbapenem-resistant Pseudomonas aeruginosa 101885 clinical isolate assessed as imipenem MIC at 8 uM by checkerboard assay (reference value: 4 ug/ml)
Pseudomonas aeruginosa [6] = experiment: Potentiation of ceftazidime-induced antibacterial activity against carbapenem-resistant Pseudomonas aeruginosa 86052 clinical isolate assessed as fold reduction in ceftazidime MIC at 8 uM in presence of beta-lactamase inhibitor, avi-bactam
Pseudomonas aeruginosa [7] = experiment: Potentiation of ceftazidime-induced antibacterial activity against carbapenem-resistant Pseudomonas aeruginosa 109084 clinical isolate assessed as ceftazidime MIC at 8 uM by checkerboard assay (reference value: 64 ug/ml)
Pseudomonas aeruginosa [8] = experiment: Potentiation of imipenem-induced antibacterial activity against carbapenem-resistant Pseudomonas aeruginosa 107092 clinical isolate assessed as imipenem MIC at 8 uM by checkerboard assay (reference value: 64 ug/ml)
Pseudomonas aeruginosa [9] = experiment: Potentiation of aztreonam-induced antibacterial activity against carbapenem-resistant Pseudomonas aeruginosa 108590 clinical isolate assessed as fold reduction in aztreonam MIC at 8 uM in presence of beta-lactamase inhibitor, avi-bactam
Pseudomonas aeruginosa [10] = experiment: Antibacterial activity against Pseudomonas aeruginosa PAO750 harboring mexAB-oprM/mexCD-oprJ/mexEF-oprN/mexJK/mexXY/opmH efflux deficient mutant
Pseudomonas aeruginosa [11] = experiment: Potentiation of aztreonam-induced antibacterial activity against carbapenem-resistant Pseudomonas aeruginosa 108590 clinical isolate assessed as aztreonam MIC at 8 uM by checkerboard assay (reference value: 32 ug/ml)
Pseudomonas aeruginosa [12] = experiment: Potentiation of imipenem-induced antibacterial activity against carbapenem and colistin-resistant Pseudomonas aeruginosa 114228 clinical isolate assessed as imipenem MIC at 8 uM by checkerboard assay (reference value: 8 ug/ml)
Pseudomonas aeruginosa [13] = experiment: Potentiation of imipenem-induced antibacterial activity against wild type Pseudomonas aeruginosa PAO1 assessed as fold reduction in imipenem MIC at 8 uM
Pseudomonas aeruginosa [14] = experiment: Potentiation of aztreonam-induced antibacterial activity against carbapenem-resistant Pseudomonas aeruginosa 88949 clinical isolate assessed as fold reduction in aztreonam MIC at 8 uM in presence of beta-lactamase inhibitor, avi-bactam
Pseudomonas aeruginosa [15] = experiment: Potentiation of ceftazidime-induced antibacterial activity against carbapenem and colistin-resistant Pseudomonas aeruginosa 114228 clinical isolate assessed as ceftazidime MIC at 8 uM by checkerboard assay (reference value: 8 ug/ml)
Pseudomonas aeruginosa [16] = experiment: Potentiation of aztreonam-induced antibacterial activity against carbapenem-resistant Pseudomonas aeruginosa 260-97103 clinical isolate assessed as aztreonam MIC at 8 uM by checkerboard assay (reference value: 64 ug/ml)
Pseudomonas aeruginosa [17] = experiment: Potentiation of aztreonam-induced antibacterial activity against carbapenem-resistant Pseudomonas aeruginosa 107092 clinical isolate assessed as fold reduction in aztreonam MIC at 8 uM in presence of beta-lactamase inhibitor, avi-bactam
Pseudomonas aeruginosa [18] = experiment: Potentiation of imipenem-induced antibacterial activity against carbapenem-resistant Pseudomonas aeruginosa 260-97103 clinical isolate assessed as imipenem MIC at 8 uM by checkerboard assay (reference value: 16 ug/ml)
Pseudomonas aeruginosa [19] = experiment: Potentiation of ceftazidime-induced antibacterial activity against carbapenem-resistant Pseudomonas aeruginosa 107092 clinical isolate assessed as ceftazidime MIC at 8 uM by checkerboard assay (reference value: 128 ug/ml)
Pseudomonas aeruginosa [20] = experiment: Potentiation of aztreonam-induced antibacterial activity against carbapenem-resistant Pseudomonas aeruginosa 86052 clinical isolate assessed as fold reduction in aztreonam MIC at 8 uM in presence of beta-lactamase inhibitor, avi-bactam
Pseudomonas aeruginosa [21] = experiment: Potentiation of imipenem-induced antibacterial activity against carbapenem-resistant Pseudomonas aeruginosa 88949 clinical isolate assessed as imipenem MIC at 8 uM by checkerboard assay (reference value: 64 ug/ml)
Pseudomonas aeruginosa [22] = experiment: Potentiation of imipenem-induced antibacterial activity against carbapenem and colistin-resistant Pseudomonas aeruginosa 101243 clinical isolate assessed as imipenem MIC at 8 uM by checkerboard assay (reference value: 8 ug/ml)
Pseudomonas aeruginosa [23] = experiment: Potentiation of ceftazidime-induced antibacterial activity against carbapenem-resistant Pseudomonas aeruginosa 259-96918 clinical isolate expressing metallo-beta-lactamase assessed as ceftazidime MIC at 8 uM by checkerboard assay (reference value: 512 ug/ml)
Pseudomonas aeruginosa [24] = experiment: Potentiation of aztreonam-induced antibacterial activity against carbapenem-resistant Pseudomonas aeruginosa PAO750 harboring mexAB-oprM/mexCD-oprJ/mexEF-oprN/mexJK/mexXY/opmH efflux deficient mutant assessed as aztreonam MIC at 8 uM by checkerboard assay (reference value: 0.5 ug/ml)
Pseudomonas aeruginosa [25] = experiment: Potentiation of imipenem-induced antibacterial activity against carbapenem-resistant Pseudomonas aeruginosa 86052 clinical isolate assessed as fold reduction in imipenem MIC at 8 uM in presence of beta-lactamase inhibitor, rele-bactam
Pseudomonas aeruginosa [26] = experiment: Potentiation of aztreonam-induced antibacterial activity against wild type Pseudomonas aeruginosa PAO1 assessed as fold reduction in aztreonam MIC at 8 uM
Pseudomonas aeruginosa [27] = experiment: Potentiation of imipenem-induced antibacterial activity against carbapenem-resistant Pseudomonas aeruginosa PAO750 harboring mexAB-oprM/mexCD-oprJ/mexEF-oprN/mexJK/mexXY/opmH efflux deficient mutant assessed as imipenem MIC at 8 uM by checkerboard assay (reference value: 4 ug/ml)
Pseudomonas aeruginosa [28] = experiment: Potentiation of ceftazidime-induced antibacterial activity against carbapenem-resistant Pseudomonas aeruginosa 260-97103 clinical isolate assessed as ceftazidime MIC at 8 uM by checkerboard assay (reference value: 32 ug/ml)
Pseudomonas aeruginosa [29] = experiment: Potentiation of ceftazidime-induced antibacterial activity against wild type Pseudomonas aeruginosa PAO1 assessed as ceftazidime MIC at 8 uM by checkerboard assay (reference value: 2 ug/ml)
Pseudomonas aeruginosa [30] = experiment: Potentiation of imipenem-induced antibacterial activity against carbapenem-resistant Pseudomonas aeruginosa 259-96918 clinical isolate expressing MBL assessed as imipenem MIC at 8 uM by checkerboard assay (reference value: 64 ug/ml)
Pseudomonas aeruginosa [31] = experiment: Potentiation of aztreonam-induced antibacterial activity against carbapenem and colistin-resistant Pseudomonas aeruginosa 114228 clinical isolate assessed as aztreonam MIC at 8 uM by checkerboard assay (reference value: 32 ug/ml)
Pseudomonas aeruginosa [32] = experiment: Potentiation of aztreonam-induced antibacterial activity against carbapenem-resistant Pseudomonas aeruginosa PAO200 harboring mexAB-oprM efflux deficient mutant assessed as aztreonam MIC at 8 uM by checkerboard assay (reference value: 0.25 ug/ml)

## NC[C@H]1O[C@H](O[C@H]2[C@H](OCCCCCCCCN3CCCNCCNCCCNCC3)[C@@H](O)[C@H](N)C[C@@H]2N)[C@H](N)C[C@@H]1O.O=C(O)C(F)(F)F.O=C(O)C(F)(F)F.O=C(O)C(F)(F)F.O=C(O)C(F)(F)F.O=C(O)C(F)(F)F.O=C(O)C(F)(F)F.O=C(O)C(F)(F)F.O=C(O)C(F)(F)F
Pseudomonas aeruginosa [1]
  MIC: 4 µg/mL
Pseudomonas aeruginosa [2]
  MIC: 8 µg/mL
Pseudomonas aeruginosa [3]
  MIC: 2 µg/mL
Pseudomonas aeruginosa [4]
  MIC: 0.5 µg/mL
Pseudomonas aeruginosa [5]
  MIC: 2 µg/mL
Pseudomonas aeruginosa [6]
  fold change (FC): 16
Pseudomonas aeruginosa [7]
  MIC: 32 µg/mL
Pseudomonas aeruginosa [8]
  MIC: 32 µg/mL
Pseudomonas aeruginosa [9]
  fold change (FC): 16
Pseudomonas aeruginosa [10]
  MIC: > 128 µg/mL
Pseudomonas aeruginosa [11]
  MIC: 8 µg/mL
Pseudomonas aeruginosa [12]
  MIC: 8 µg/mL
Pseudomonas aeruginosa [13]
  fold change (FC): 2
Pseudomonas aeruginosa [14]
  fold change (FC): 16
Pseudomonas aeruginosa [15]
  MIC: 4 µg/mL
Pseudomonas aeruginosa [16]
  MIC: 8 µg/mL
Pseudomonas aeruginosa [17]
  fold change (FC): 16
Pseudomonas aeruginosa [18]
  MIC: 8 µg/mL
Pseudomonas aeruginosa [19]
  MIC: 32 µg/mL
Pseudomonas aeruginosa [20]
  fold change (FC): 16
Pseudomonas aeruginosa [21]
  MIC: 64 µg/mL
Pseudomonas aeruginosa [22]
  MIC: 8 µg/mL
Pseudomonas aeruginosa [23]
  MIC: 128 µg/mL
Pseudomonas aeruginosa [24]
  MIC: 0.13 µg/mL
Pseudomonas aeruginosa [25]
  fold change (FC): 16
Pseudomonas aeruginosa [26]
  fold change (FC): 2
Pseudomonas aeruginosa [27]
  MIC: 4 µg/mL
Pseudomonas aeruginosa [28]
  MIC: 16 µg/mL
Pseudomonas aeruginosa [29]
  MIC: 0.5 µg/mL
Pseudomonas aeruginosa [30]
  MIC: 32 µg/mL
Pseudomonas aeruginosa [31]
  MIC: 16 µg/mL
Pseudomonas aeruginosa [32]
  MIC: 0.06 µg/mL
